Values joined by “and” are separate entries in the source; they are usually repeats but may differ in a detail not shown here. Equal entries are not always repeated.
Assays:
[1] = system: BAX shift towards the chondriosome; test: Co-localization between Bax protein and chondriosome, Bax-YFP in MCF-7 cells; type: cell-based; details: for Doses (concentration at which the compound drove the BAX to shift towards the chondriosome): Bax-YFP/Mito Tracker Red; for Time (time period after which BAX shifted towards the chondriosome): at the concentration given
Protocol: 5 μg of Bax-YFP plasmid was transfected into MCF-7 cells by using calcium phosphate coprecipitation method, 24 hours later, the cells were inoculated in a 6-well plate (0.2×10^6 cells/well), and 10 μM of the compound 1 to be detected was added thereinto. 6 hours later, the cells were washed with PBS and hatched away from light with 50 nM Mito Tracker Red CMXRos (chondriosome specific probes; red) for 10 minutes. Then the cells were washed with PBS for three times, and the fluorescent image was scanned with Radiance2000 laser confocal microscopy (Bio-Rad, USA). Meanwhile, dual channel scanning was carried out, one channel was used to scan the green fluorescence of Bax-YFP, and the other channel was used to scan the red fluorescence of the CMXRos probe for indicating the chondriosome. […] When the Bax protein was localized on the chondriosome, the green and red fluorescence was superimposed into orange, as shown in FIG. 7.
Other 24 compounds were detected by the same experimental method as described above. […] Wherein the concentration and time meant that the detected compound simulated the BH3-only protein and driven the BAX to shift towards the chondriosome at the concentration for the time period.

[2] = biological target: T1, interaction between Bcl-2 and Bax (Homo sapiens, UniProt P10415); test: Intracellular FRET, Bcl-2-CFP/Bax-YFP in Hela cells; type: cell-based; details: for Time (time period after which the interaction between Bcl-2 and Bax was interfered): at the concentration given
T1 construct: expressed in transfected cells; host or cells: Hela cells
Protocol: 2 μg of Bcl-2-CFP and Bax-YFP plasmids were transfected separately or simultaneously into Hela cells by using calcium phosphate coprecipitation method, 24 hours later, the cells were inoculated in a 6-well plate (2×10^5 cells/well), and the compound 1 to be detected dissolved in DMSO was added there into until the final concentration (2, 5, 10 and 15 μM) was achieved. 24 hours later (please refer to FIG. 5); the cells were washed with PBS for three times. The fluorescence value was detected by GENIOS fluorescence enzyme-labelled meter (TECAN, Swiss). In time-dependent experiment, the transfected cells were inoculated in a 6-well plate, after that, 40 μM of the compound was added thereinto. 3, 6 and 24 hours later (FIG. 6), the fluorescence intensities were detected by plate reader. As for the cell group in which only Bcl-2-CFP plasmid was transfected, the values at 475 nm emission wave length and 433 nm excitation wave length were recorded. As for the cell group in which only Bax-YFP plasmid was transfected, the values at 527 nm emission wave length and 505 nm excitation wave length were recorded. As for the cell group in which Bcl-2-CFP and Bax-YFP plasmids were co-transfected, the values at 527 nm and 475 emission wave lengths and 433 nm excitation wave length were recorded. The ratio of fluorescence intensity at 527 nm and 475 nm emission wave lengths was FRET. The FRET for the control group in which the plasmid was solely transfected was set as 1.0. […] In the cotransfected cells, the FRET increased up to 2.0 due to the interaction of Bcl-2 protein and Bax protein, and that the interference to the interaction between the two proteins increased and FRET decreased with the increase of the drug concentration and time. The cellular vitality was detected by MTT method. When the concentration of the compound reached 1 μM, the interaction between Bcl-2 and Bax can be interfered after 2 hours, and the results appeared concentration-time dependent trend.
Wherein the concentration and time meant that the detected compound interfered with the interaction between Bcl-2 and Bax at the concentration for the time period.

[3] = biological target: Bcl-2 protein (Homo sapiens, UniProt P10415); test: ELISA assay, competitive binding to Bcl-2 protein (biotin-Bim/streptavidin plate); details: method calculates average IC50, read-out: Bcl-2 binding constants
Protocol: (§1) The present inventors used fluorescence polarization assay to detect the bonding force between the protein and the compounds in a previous study (PCT/CN2010/075521). […] ELISA assay was used to detect the bonding force between the compounds and the protein in this application.
(§2) Biotinylated Bim peptide was diluted to 0.09 μg/mL in SuperBlock blocking buffer in PBS and incubated for 1.5 h in 96-well microtiter plates already coated with streptavidin to allow the formation of the complex between Biotin-Bim and streptavidin. All incubations were performed at room temperature unless otherwise noted. Each inhibitor was first dissolved in pure DMSO to obtain a 10 mM stock solution. For each tested inhibitor, different concentrations of the inhibitor were incubated with 20 nM His-tagged Mcl-1 protein in PBS for 1 h with a final DMSO concentration of 4%. The plates were washed three times with PBS containing 0.05% Tween-20. The inhibitor and protein mixture (100 μL) were transferred to the plate containing the biotin-Bim/streptavidin complex and incubated for 2 h. The plate was then washed as before and mouse anti-His antibody that conjugated with horseradish peroxidase was added into the wells and incubated for 1 h. The plate was then washed with PBS containing 0.05% Tween-20. Finally, TMB was added to each well; the enzymatic reaction was stopped after 30 min by addition of H2SO4 (100 μL, 2M). Absorbances were measured with a TECAN GENios (Swiss, TECAN) microplate reader using a wavelength of 450 nm. Three independent experiments were performed with each inhibitor to calculate average IC50 value and standard deviation (SD).
(§3) The BH3 analogous degrees of other 11 compounds were detected by using the experimental method as described above. The protein binding constant (binding constant in table 1) between them and Bcl-2 and Mcl-1 proteins were also on nM grade.

[4] = system: Bcl-2; test: Western blotting, semiquantitative analysis of Bcl-2 protein bands; type: cell-based; details: tumor cells; for concentration of the protein bands (semiquantitative, normalized), Bcl-2: control = 1
Protocol: (§4) The interest protein was detected by the corresponding antibody. The expression of the interest protein in the cells was detected by horseradish peroxidase-labeled secondary antibodies in combination with ECL coloration method. […] The concentration of the protein bands in the Western images were carried out semiquantitative analysis and normalization treatment with KODAK Gel Logic 1500 imaging system software.

[5] = system: MCF-7 cells; test: Cytotoxicity by MTT, cells without plasmid transfection; type: cell-based; details: Homo sapiens, MCF7; MCF-7, MTT, 48 hours; read-out: IC50 value in untransfected cells
Protocol: (§5) 3 μg of BAX/BAK interfering plasmid was transfected into MCF-7 cells by using calcium phosphate coprecipitation method, 24 hours later, the cells were collected. The expressions after the BAX and BAK proteins interfered with RNA was detected by Western, and the cell groups without plasmid transfection were treated similarly and were set as the control group. The transfected cells were inoculated in a 96-well plate (1×10^5 cells/well), the control experiment of the cell group without plasmid transfection was carried out in parallel. The compound 1 to be detected was added thereinto according to the concentration gradient designed before the experiment. 48 hours later, the cellular vitality was detected by MTT. The experimental results were shown in FIG. 9, Gossypol as nonspecific BH3 analogue was treated in parallel.
(§6) Other 24 compounds were also detected by the same experimental method as described above, the differences of IC50 values between the transfected cells and the without plasmid transfection cells were compared.

[6] = system: MCF-7 cells transfected with BAX/BAK interfering plasmid; test: Cytotoxicity by MTT, cells transfected with BAX/BAK interfering plasmid; type: cell-based; details: for IC50: Homo sapiens, MCF7, MCF-7 with BAX/BAK interfering plasmid, MTT, 48 hours
Protocol: as §5, §6

[7] = biological target: His-tagged Mcl-1 protein (Homo sapiens, UniProt Q07820); test: ELISA assay, competitive binding to Mcl-1 protein (biotin-Bim/streptavidin plate); details: 20 nM His-tagged Mcl-1, method calculates average IC50, read-out: Mcl-1 binding constants
Protocol: as §1, §2, §3

[8] = system: Mcl-1; test: Western blotting, semiquantitative analysis of Mcl-1 protein bands; type: cell-based; details: tumor cells; for concentration of the protein bands (semiquantitative, normalized), Mcl-1: control = 1
Protocol: as §4

Chain of Bcl-2 protein (P10415 whole entry, species assumed): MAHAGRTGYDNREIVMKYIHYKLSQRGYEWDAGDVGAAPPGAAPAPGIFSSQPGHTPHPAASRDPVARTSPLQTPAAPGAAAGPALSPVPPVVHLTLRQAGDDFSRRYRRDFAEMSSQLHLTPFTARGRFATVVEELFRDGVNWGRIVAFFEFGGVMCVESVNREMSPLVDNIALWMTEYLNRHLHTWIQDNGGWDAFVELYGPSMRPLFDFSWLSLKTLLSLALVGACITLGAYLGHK
T1 sequence (P10415 whole entry): as the sequence (P10415 whole entry, species assumed) above
Chain of His-tagged Mcl-1 protein (Q07820 whole entry): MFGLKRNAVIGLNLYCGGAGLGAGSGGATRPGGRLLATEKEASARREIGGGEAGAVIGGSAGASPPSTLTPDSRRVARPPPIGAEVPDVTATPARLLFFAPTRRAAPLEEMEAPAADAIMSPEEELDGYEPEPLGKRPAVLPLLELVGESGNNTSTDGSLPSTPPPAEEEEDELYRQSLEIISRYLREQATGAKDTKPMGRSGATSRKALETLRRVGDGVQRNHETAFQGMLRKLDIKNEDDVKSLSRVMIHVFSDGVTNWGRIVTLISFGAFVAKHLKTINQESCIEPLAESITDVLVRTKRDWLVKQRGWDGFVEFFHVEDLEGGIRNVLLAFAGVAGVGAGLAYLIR

| Structure (SMILES) | Doses (concentration at which the compound interfered with the interaction between Bcl-2 and Bax) [2] | Time (time period after which the interaction between Bcl-2 and Bax was interfered) [2] | IC50 [3] | IC50 [7] | melting point | Doses (concentration at which the compound drove the BAX to shift towards the chondriosome) [1] | Time (time period after which BAX shifted towards the chondriosome) [1] | concentration of the protein bands (semiquantitative, normalized), Bcl-2 ([4]; 6 h) | concentration of the protein bands (semiquantitative, normalized), Bcl-2 ([4]; 12 h) | concentration of the protein bands (semiquantitative, normalized), Bcl-2 ([4]; 18 h) | concentration of the protein bands (semiquantitative, normalized), Bcl-2 ([4]; 24 h) | inhibition against Bcl-2 (in words) ([4]; Western blotting) | IC50 [5] | IC50 [6] | dependence of cytotoxicity on BAX/BAK ([6]; comparison of transfected and untransfected MCF-7 cells) | concentration of the protein bands (semiquantitative, normalized), Mcl-1 ([8]; 2 h) | concentration of the protein bands (semiquantitative, normalized), Mcl-1 ([8]; 6 h) | inhibition against Mcl-1 (in words) ([8]; Western blotting) |
| --- | --- | --- | --- | --- | --- | --- | --- | --- | --- | --- | --- | --- | --- | --- | --- | --- | --- | --- |
| CCCCNC1=C2C(=NC1=O)c1cccc3cccc2c13 [Compound 1, 9-n-Butylamino-8H-acenaphtho[1,2-b]pyrrol-8-one] | 1 µM and 1.0 µM | 2 h | 142 nM | 49 nM |  | 1.0 µM | 3 h | 0.99 | 0.99 | 0.58 | 0.21 | had the inhibition against these two proteins | 4000 nM | > 50000 nM | absolute dependence on BAX/BAK | 0.79 | 0.35 | had the inhibition against these two proteins |
| CCCCCCNC1=C2C(=NC1=O)c1cccc3cccc2c13 [Compound 2, 9-n-Hexylamino-acenaphtho[1,2-b]pyrrol-8-one] | 0.4 µM | 3 h | 28 nM | 25 nM | 234 to 235 °C | 0.5 µM | 3 h | 0.99 | 0.99 | 0.50 | 0.19 |  | 3500 nM | > 50000 nM |  | 0.70 | 0.31 |  |
| CCCCNC1=C2C(=NC1=O)c1cccc3c(C(=O)c4ccccc4)ccc2c13 [Compound 5, 3-Benzoyl-9-butylamino-acenaphtho[1,2-b]pyrrol-8-one] | 2.0 µM | 6 h | 65 nM | 125 nM | 262 to 263 °C | 5.0 µM | 5 h |  |  |  |  |  | 6500 nM | > 50000 nM |  |  |  |  |
| CCCCN(C)C1=C2C(=NC1=O)c1cccc3cccc2c13 [Compound 6, 9-(Butyl-methyl-amino)-acenaphtho[1,2-b]pyrrol-8-one] | 2.0 µM | 5 h | 45 nM | 66 nM | 245 to 246 °C | 4.0 µM | 4 h |  |  |  |  |  | 4000 nM | > 50000 nM |  |  |  |  |

Further lines, with some results ahead:

| Doses (concentration at which the compound interfered with the interaction between Bcl-2 and Bax) [2] | Time (time period after which the interaction between Bcl-2 and Bax was interfered) [2] | IC50 [3] | IC50 [7] | melting point | Structure (SMILES) | Doses (concentration at which the compound drove the BAX to shift towards the chondriosome) [1] | Time (time period after which BAX shifted towards the chondriosome) [1] | concentration of the protein bands (semiquantitative, normalized), Bcl-2 ([4]; 6 h) | concentration of the protein bands (semiquantitative, normalized), Bcl-2 ([4]; 12 h) | concentration of the protein bands (semiquantitative, normalized), Bcl-2 ([4]; 18 h) | concentration of the protein bands (semiquantitative, normalized), Bcl-2 ([4]; 24 h) | inhibition against Bcl-2 (in words) ([4]; Western blotting) | IC50 [5] | IC50 [6] | dependence of cytotoxicity on BAX/BAK ([6]; comparison of transfected and untransfected MCF-7 cells) | concentration of the protein bands (semiquantitative, normalized), Mcl-1 ([8]; 2 h) | concentration of the protein bands (semiquantitative, normalized), Mcl-1 ([8]; 6 h) | inhibition against Mcl-1 (in words) ([8]; Western blotting) |
| --- | --- | --- | --- | --- | --- | --- | --- | --- | --- | --- | --- | --- | --- | --- | --- | --- | --- | --- |
| 0.2 µM | 2 h | 8 nM | 14 nM | 252 to 253 °C | O=C1N=C2C(=C1NCCCc1ccccc1)c1cccc3cccc2c13 [Compound 3, 9-(3-Phenyl-propylamino)-acenaphtho[1,2-b]pyrrol-8-one] | 0.2 µM | 2 h | 0.99 | 0.99 | 0.49 | 0.18 |  | 3000 nM | > 50000 nM |  | 0.65 | 0.29 |  |
| 1.0 µM | 5 h | 35 nM | 95 nM | 250 to 251 °C | CCOc1ccc2c3c(cccc13)C1=NC(=O)C(NCCCc3ccccc3)=C12 [Compound 4, 3-Ethoxy-9-(3-phenyl-propylamino)-acenaphtho[1,2-b]pyrrol-8-one] | 3.0 µM | 4 h |  |  |  |  |  | 5600 nM | > 50000 nM |  |  |  |  |
